Assays:
caspase-3 [1] = assay: Fluorogenic substrate (Ac-DEVD-AMC) cleavage assay; type: biochemical; settings: 10 μM compound, 2 nM caspase-3, 50 μM Ac-DEVD-AMC, HEPES pH 7.4 with 10 mM DTT, n = 2
Method: To check whether our probes function as inhibitors, competitive ABPP [28] was performed. Recombinant caspase-3 was incubated with probes 9a–10c, 11a and 12a with or without irradiation at 365 nm, followed by labeling of residually active caspase-3 with the fluorescent, caspase-directed activity-based probe (ABP) SV149, a tetramethylrhodamine derivative of KMB-01 [29]. Caspase activity itself was not affected by UV irradiation, as shown by bands of equal intensity with and without UV light (Figure 2A). […] To confirm inhibition, we also performed substrate cleavage assays using the fluorogenic aminomethyl coumarin substrate Ac-DEVD-AMC. […] Inhibition of active caspases could also be achieved in an apoptotic cell lysate (Figure 2D).
Purified caspase-3 (2 nM) was pre-activated by incubating in caspase reaction buffer (20 mm HEPES pH 7.4, 100 mM NaCl, 1 mM EDTA, 10% sucrose (w/v), 0.1% CHAPS (w/v), 10 mM DTT) for 15 min at 37 °C. Inhibitors 9a, 10a, and DMSO (control) were incubated with the caspase-3 at 10 μM final concentration. One set was irradiated with a handheld UV lamp at 365 nm for 30 min at room temperature whereas the control set was not irradiated. After 30 min, 99 μL of the sample was added to 1 μL of Ac-DEVD-AMC fluorogenic substrate (5 mM in dmso; 50 μM final concentration) in a black 96 well plate. The fluorescence intensity was read using an iD3 SpectraMax platereader (Molecular Devices; excitation wavelength: 340 nm; emission wavelength: 475 nm). The experiment was performed in duplicate. Activity was determined as the slope from the linear part of the progress curve by using GraphPad Prism.
Figure 2 Inhibition of caspase-3. (A) Competitive activity-based protein profiling (ABPP) experiments using ψ(CH2NH) or triazolo peptide derivatives 9–12 with or without irradiation. Compounds 9a–12a were used at 10 μM final concentration, 9b, 9c, 10b and 10c at 100 μM. Inh = caspase inhibitor biotin-DEVD-AOMK, used at 100 nM concentration. (B) Representative progress curves of fluorescence produced by Ac-DEVD-AMC (50 μM) cleavage by caspase-3, irradiated with or without 10 μM of the indicated compounds. (C) Bar graph of residual caspase-3 activity of replicate experiments (n = 2) of those in (B). (D) Inhibition of executioner’s caspase-3 and -7 in lysates of HEK293 cells, treated with cytochrome c/dATP to induce apoptosis.

caspase-3 [2] = assay: ESI-MS on purified caspase-3 (covalent modification); type: binding; settings: 10a under irradiation at 365 nm
Source text: Our probes were designed to irreversibly photocrosslink to caspase-3. In order to show covalent complex formation, we made use of the alkyne function located at the N-terminus of all probes by installing a tetramethyl rhodamine fluorophore (TAMRA) via copper(I)-catalyzed azide alkyne cycloaddition. […] To exclude that this observation was due to our gel-based read-out, we also performed mass spectrometry experiments. […] This mass shift corresponded to the covalent modification (Figure 3C).
Intact proteins were analyzed on an orbitrap Fusion Lumos mass spectrometer equipped with a nanoelectrospray ion source (Thermo Fischer, Dreieich, Germany). Sample desalting was performed using Amicon Ultra-0.5 3K NMWL centrifugal filters (Merck Millipore, Darmstadt, Germany) according to the manufacturer’s protocol and samples were brought to a final concentration of approx. 1 pmol/µL (in 25% MeOH and 0.5% formic acid). […]
Figure 3 Non-covalent inhibition of caspase-3 by compounds 9 and 10. […] (G) UV irradiation of ψ(CH2NH) peptides 14 and 15 in the presence of benzophenone leads to inhibition of caspase-3, as monitored by competitive ABPP. […] Ac-DEVD-aldehyde (100 nM) was used as a control compound, whereas 9a and 10a (10 μM) were irradiated for 10 min and reacted with sodium bisulfite for an additional 20 min before 30 min incubation with caspase-3 and read-out with a fluorescent caspase ABP.

caspase-3 [3] = assay: Competitive ABPP with bisulfite aldehyde quenching; type: biochemical; settings: 10 μM, irradiated 10 min, reacted with 10 mM NaHSO3 for 20 min, then 30 min with caspase-3, fluorescent ABP read-out
Source text: The presence of a ψ(CH2NH) peptide with benzophenone or UV irradiation alone was not sufficient for inhibition, but all needed to be present to block the caspase-3 active site (Figure 3G,H). We hypothesized that the active species is a peptide aldehyde, formed by oxidation of the ψ(CH2NH) moiety (see also discussion in Section 3). To support this hypothesis, we performed an experiment in which this aldehyde was trapped by sodium bisulfite, forming a sodium bisulfite adduct.
Compounds were incubated with or without irradiation (10 min) in PBS with or without 10 mM NaHSO3 and incubated for another 20 min before addition to caspase-3. After 30 min, ABP 13 was added (final concentration 1 μM) to label residual caspase activity. The samples were incubated for 30 min at room temperature, after which 1/3rd volume of 4× Laemmli buffer was added. Samples were processed in the same way as under Section 4.4.1.
Figure 3 Non-covalent inhibition of caspase-3 by compounds 9 and 10. (A) Fluorescent labeling of caspase-3 by ψ(CH2NH) peptides 9–10 and triazolo peptides 11–12. […] (B) Deconvoluted ESI-MS of caspase-3. (C) Deconvoluted ESI-MS of caspase-3 after incubation with covalent activity-based probe (ABP) 13. Note that the active site, located on the large subunit, is modified. (D) Deconvoluted ESI-MS of caspase-3 after irradiation in the presence of benzophenone ψ(CH2NH) 10a, not resulting in covalent modification. […] (F) Structures of ψ(CH2NH) peptides 14 and 15 without photocrosslinker. (G) UV irradiation of ψ(CH2NH) peptides 14 and 15 in the presence of benzophenone leads to inhibition of caspase-3, as monitored by competitive ABPP. […] Ac-DEVD-aldehyde (100 nM) was used as a control compound, whereas 9a and 10a (10 μM) were irradiated for 10 min and reacted with sodium bisulfite for an additional 20 min before 30 min incubation with caspase-3 and read-out with a fluorescent caspase ABP.

Inhibition of Ac-DEVD-AMC cleavage by caspase-3 (caspase-3 [1]; not irradiated): little to no inhibition
Covalent modification of caspase-3 (mass shift, ESI-MS) (caspase-3 [2]): did not reveal any modification
Inhibition of caspase-3 by irradiated sample exposed to sodium bisulfite (caspase-3 [3]): lose their inhibitory capacity
Substance: Hexynoyl-Asp-Glu-Val-Aspψ(CH2NH)-Ala-Bpa-NH2 [10a]
Inhibition of Ac-DEVD-AMC cleavage by caspase-3 (caspase-3 [1]; irradiated at 365 nm for 30 min at room temperature): complete blockage of substrate processing

Reference: paper PMC6337261, “Short Peptides with Uncleavable Peptide Bond Mimetics as Photoactivatable Caspase-3 Inhibitors” (Molecules, 2019)
